Source: patent US9434724B2, “Quinuclidines for modulating alpha 7 activity” (priority 2014, dated 2016)
pIC50, pKi: −log10 of the molar value.

Target: CYP3A4 (Homo sapiens (Human), UniProt P08684)
Assay: not given
Conditions: microsomes, 5 min

Chain of CYP3A4 (P08684 whole entry): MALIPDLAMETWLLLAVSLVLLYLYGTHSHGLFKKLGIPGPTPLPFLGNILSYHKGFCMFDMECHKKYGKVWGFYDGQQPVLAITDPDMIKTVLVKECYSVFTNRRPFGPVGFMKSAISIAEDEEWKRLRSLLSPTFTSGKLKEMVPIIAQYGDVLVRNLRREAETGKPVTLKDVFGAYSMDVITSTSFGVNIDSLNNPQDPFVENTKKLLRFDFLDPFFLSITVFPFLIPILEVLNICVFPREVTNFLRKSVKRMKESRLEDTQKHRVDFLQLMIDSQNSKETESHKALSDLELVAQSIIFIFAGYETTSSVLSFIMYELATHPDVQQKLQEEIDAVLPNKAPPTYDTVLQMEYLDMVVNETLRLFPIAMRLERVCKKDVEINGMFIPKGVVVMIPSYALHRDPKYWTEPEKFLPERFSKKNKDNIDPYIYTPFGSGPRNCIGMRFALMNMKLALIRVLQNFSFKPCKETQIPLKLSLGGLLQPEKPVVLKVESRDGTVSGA

SMILES	pIC50
COc1cc(Cl)c2c(C(=O)OCC34CCN(CC3)CC4)c[nH]c2c1 [Compound 38, quinuclidin-4-ylmethyl 4-chloro-6-methoxy-1H-indole-3-carboxylate]	< 5.00
O=C(OCC12CCN(CC1)CC2)c1c[nH]c2cc(F)cc(Br)c12 [Compound 41, quinuclidin-4-ylmethyl 4-bromo-6-fluoro-1H-indole-3-carboxylate]	< 5.00
O=C(OCC12CCN(CC1)CC2)c1c[nH]c2cc(Cl)cc(Br)c12 [Compound 42, quinuclidin-4-ylmethyl 4-bromo-6-chloro-1H-indole-3-carboxylate]	< 5.00
COc1ccc2[nH]cc(C(=O)OCC34CCN(CC3)CC4)c2c1Br [Compound 47, quinuclidin-4-ylmethyl 4-bromo-5-methoxy-1H-indole-3-carboxylate]	< 5.00
Cc1cc(Br)c2c(C(=O)OCC34CCN(CC3)CC4)c[nH]c2c1 [Compound 49, quinuclidin-4-ylmethyl 4-bromo-6-methyl-1H-indole-3-carboxylate]	< 5.00
Cc1cc(Cl)cc2[nH]cc(C(=O)OCC34CCN(CC3)CC4)c12 [Compound 50, quinuclidin-4-ylmethyl 6-chloro-4-methyl-1H-indole-3-carboxylate]	< 5.00
Cc1cc(C)c2c(C(=O)OCC34CCN(CC3)CC4)c[nH]c2c1 [Compound 54, quinuclidin-4-ylmethyl 4,6-dimethyl-1H-indole-3-carboxylate]	< 5.00
COc1cc2[nH]cc(C(=O)OCC34CCN(CC3)CC4)c2cc1C [Compound 56, quinuclidin-4-ylmethyl 6-methoxy-5-methyl-1H-indole-3-carboxylate]	< 5.00
Cc1cc(O)cc2[nH]cc(C(=O)OCC34CCN(CC3)CC4)c12 [Compound 83, quinuclidin-4-ylmethyl 6-hydroxy-4-methyl-1H-indole-3-carboxylate]	< 5.00

Target: rat brain nicotinic receptor (α7 NAChR) (Rattus norvegicus (Rat), UniProt Q05941)
Assay: not given
Format: binding
Conditions: not given

Chain of rat brain nicotinic receptor (α7 NAChR) (Q05941 23-502 limits assumed): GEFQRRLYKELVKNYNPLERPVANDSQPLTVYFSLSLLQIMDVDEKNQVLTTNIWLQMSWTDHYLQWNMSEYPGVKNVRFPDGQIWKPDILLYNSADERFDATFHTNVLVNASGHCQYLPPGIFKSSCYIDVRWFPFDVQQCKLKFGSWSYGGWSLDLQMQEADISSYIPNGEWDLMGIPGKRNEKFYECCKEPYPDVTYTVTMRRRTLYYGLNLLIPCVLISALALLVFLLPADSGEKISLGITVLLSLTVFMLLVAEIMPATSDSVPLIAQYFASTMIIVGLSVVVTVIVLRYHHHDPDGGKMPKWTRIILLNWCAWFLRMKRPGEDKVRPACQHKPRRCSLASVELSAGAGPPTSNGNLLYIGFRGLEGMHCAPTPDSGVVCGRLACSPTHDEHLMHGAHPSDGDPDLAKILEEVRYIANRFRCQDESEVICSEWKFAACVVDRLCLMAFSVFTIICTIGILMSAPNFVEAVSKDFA

SMILES	pIC50	pKi
COc1cc(Cl)c2c(C(=O)OCC34CCN(CC3)CC4)c[nH]c2c1 [Compound 38, quinuclidin-4-ylmethyl 4-chloro-6-methoxy-1H-indole-3-carboxylate]	6.40	6.47
O=C(OCC12CCN(CC1)CC2)c1c[nH]c2cc(F)cc(Br)c12 [Compound 41, quinuclidin-4-ylmethyl 4-bromo-6-fluoro-1H-indole-3-carboxylate]	6.12	6.18
COc1ccc2[nH]cc(C(=O)OCC34CCN(CC3)CC4)c2c1Br [Compound 47, quinuclidin-4-ylmethyl 4-bromo-5-methoxy-1H-indole-3-carboxylate]	7.48	7.55
Cc1cc(Br)c2c(C(=O)OCC34CCN(CC3)CC4)c[nH]c2c1 [Compound 49, quinuclidin-4-ylmethyl 4-bromo-6-methyl-1H-indole-3-carboxylate]	6.60	6.67
Cc1cc(Cl)cc2[nH]cc(C(=O)OCC34CCN(CC3)CC4)c12 [Compound 50, quinuclidin-4-ylmethyl 6-chloro-4-methyl-1H-indole-3-carboxylate]	5.89	5.96
Cc1cc(C)c2c(C(=O)OCC34CCN(CC3)CC4)c[nH]c2c1 [Compound 54, quinuclidin-4-ylmethyl 4,6-dimethyl-1H-indole-3-carboxylate]	6.40	6.46
COc1cc2[nH]cc(C(=O)OCC34CCN(CC3)CC4)c2cc1C [Compound 56, quinuclidin-4-ylmethyl 6-methoxy-5-methyl-1H-indole-3-carboxylate]	6.19	6.26
Cc1cc(O)cc2[nH]cc(C(=O)OCC34CCN(CC3)CC4)c12 [Compound 83, quinuclidin-4-ylmethyl 6-hydroxy-4-methyl-1H-indole-3-carboxylate]	7.50	7.55

Target: CYP2C9 (Homo sapiens (Human), UniProt P11712)
Assay: Cytochrome P450 inhibition in human liver microsomes, CYP2C9
Conditions: read-out: 2C9 IC50, Protocol 1

Chain of CYP2C9 (P11712 whole entry): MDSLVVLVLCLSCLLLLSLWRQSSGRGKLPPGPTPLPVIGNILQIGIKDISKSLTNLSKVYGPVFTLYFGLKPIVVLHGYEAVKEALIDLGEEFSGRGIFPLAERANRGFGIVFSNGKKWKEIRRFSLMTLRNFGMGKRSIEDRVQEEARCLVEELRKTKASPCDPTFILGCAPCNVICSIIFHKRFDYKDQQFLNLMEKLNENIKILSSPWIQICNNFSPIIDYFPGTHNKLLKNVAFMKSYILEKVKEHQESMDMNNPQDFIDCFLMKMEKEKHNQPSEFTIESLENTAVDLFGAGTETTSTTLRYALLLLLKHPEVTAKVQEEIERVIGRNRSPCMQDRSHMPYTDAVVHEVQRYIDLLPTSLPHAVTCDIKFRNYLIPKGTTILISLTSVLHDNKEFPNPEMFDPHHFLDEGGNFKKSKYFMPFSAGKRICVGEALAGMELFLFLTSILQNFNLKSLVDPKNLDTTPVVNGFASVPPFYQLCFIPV

SMILES	pIC50
O=C(OCC12CCN(CC1)CC2)c1c[nH]c2cc(F)cc(Br)c12 [Compound 41, quinuclidin-4-ylmethyl 4-bromo-6-fluoro-1H-indole-3-carboxylate]	< 5.00
O=C(OCC12CCN(CC1)CC2)c1c[nH]c2cc(Cl)cc(Br)c12 [Compound 42, quinuclidin-4-ylmethyl 4-bromo-6-chloro-1H-indole-3-carboxylate]	< 5.00
Cc1cc(Cl)cc2[nH]cc(C(=O)OCC34CCN(CC3)CC4)c12 [Compound 50, quinuclidin-4-ylmethyl 6-chloro-4-methyl-1H-indole-3-carboxylate]	< 5.00
Cc1cc(O)cc2[nH]cc(C(=O)OCC34CCN(CC3)CC4)c12 [Compound 83, quinuclidin-4-ylmethyl 6-hydroxy-4-methyl-1H-indole-3-carboxylate]	< 5.00

Test system: not listed separately
Assay: Human plasma stability
Format: in vitro ADME
Conditions: human, plasma
Method in brief: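 Compound remaining was quantified by LC-MS/MS as peak-area ratio to internal standard relative to time 0, with half-lives from single-exponential fits. Protocol 1 incubated 1 μM in heparinized human plasma (pH 7.4, 37° C) to 120 min; protocol 2 used 5 μM, pH 7.4–8.0, 37° C, n=2, to 120 min.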

SMILES	T1/2
COc1cc(Cl)c2c(C(=O)OCC34CCN(CC3)CC4)c[nH]c2c1 [Compound 38, quinuclidin-4-ylmethyl 4-chloro-6-methoxy-1H-indole-3-carboxylate]	∞
O=C(OCC12CCN(CC1)CC2)c1c[nH]c2cc(F)cc(Br)c12 [Compound 41, quinuclidin-4-ylmethyl 4-bromo-6-fluoro-1H-indole-3-carboxylate]	∞
Cc1cc(Cl)cc2[nH]cc(C(=O)OCC34CCN(CC3)CC4)c12 [Compound 50, quinuclidin-4-ylmethyl 6-chloro-4-methyl-1H-indole-3-carboxylate]	∞

Same assay, conditions: human, plasma, 2 h, 5 μM

SMILES	% Remaining @ 2 h
COc1cc(Cl)c2c(C(=O)OCC34CCN(CC3)CC4)c[nH]c2c1 [Compound 38, quinuclidin-4-ylmethyl 4-chloro-6-methoxy-1H-indole-3-carboxylate]	96.52%
O=C(OCC12CCN(CC1)CC2)c1c[nH]c2cc(F)cc(Br)c12 [Compound 41, quinuclidin-4-ylmethyl 4-bromo-6-fluoro-1H-indole-3-carboxylate]	120.27%
O=C(OCC12CCN(CC1)CC2)c1c[nH]c2cc(Cl)cc(Br)c12 [Compound 42, quinuclidin-4-ylmethyl 4-bromo-6-chloro-1H-indole-3-carboxylate]	72.21%
COc1ccc2[nH]cc(C(=O)OCC34CCN(CC3)CC4)c2c1Br [Compound 47, quinuclidin-4-ylmethyl 4-bromo-5-methoxy-1H-indole-3-carboxylate]	72.43%
Cc1cc(Br)c2c(C(=O)OCC34CCN(CC3)CC4)c[nH]c2c1 [Compound 49, quinuclidin-4-ylmethyl 4-bromo-6-methyl-1H-indole-3-carboxylate]	93.39%
Cc1cc(Cl)cc2[nH]cc(C(=O)OCC34CCN(CC3)CC4)c12 [Compound 50, quinuclidin-4-ylmethyl 6-chloro-4-methyl-1H-indole-3-carboxylate]	100.92%
Cc1cc(C)c2c(C(=O)OCC34CCN(CC3)CC4)c[nH]c2c1 [Compound 54, quinuclidin-4-ylmethyl 4,6-dimethyl-1H-indole-3-carboxylate]	89.87%
COc1cc2[nH]cc(C(=O)OCC34CCN(CC3)CC4)c2cc1C [Compound 56, quinuclidin-4-ylmethyl 6-methoxy-5-methyl-1H-indole-3-carboxylate]	77.82%
Cc1cc(O)cc2[nH]cc(C(=O)OCC34CCN(CC3)CC4)c12 [Compound 83, quinuclidin-4-ylmethyl 6-hydroxy-4-methyl-1H-indole-3-carboxylate]	71.57%

Test system: not listed separately
Assay: Metabolic stability assay in rat liver microsomes (RLM)
Format: in vitro ADME
Conditions: rat, microsomes, 1 μM
Method in brief: (§1)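 In Protocol 1, compound was 1 μM final with NADPH at 37 °C, sampled at 0–45 min. In Protocol 2, 1.5 μM compound with 0.75 mg/mL microsomes (pre-NADPH mix) in 0.1 M potassium phosphate, 1 mM EDTA, pH 7.4 was pre-incubated 10 min, then NADPH started the reaction. Both: LC-MS/MS % remaining versus time 0, half-life from single-phase exponential fit.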

SMILES	RLM
COc1cc(Cl)c2c(C(=O)OCC34CCN(CC3)CC4)c[nH]c2c1 [Compound 38, quinuclidin-4-ylmethyl 4-chloro-6-methoxy-1H-indole-3-carboxylate]	76.79 mL/min/kg
O=C(OCC12CCN(CC1)CC2)c1c[nH]c2cc(F)cc(Br)c12 [Compound 41, quinuclidin-4-ylmethyl 4-bromo-6-fluoro-1H-indole-3-carboxylate]	86.59 mL/min/kg
O=C(OCC12CCN(CC1)CC2)c1c[nH]c2cc(Cl)cc(Br)c12 [Compound 42, quinuclidin-4-ylmethyl 4-bromo-6-chloro-1H-indole-3-carboxylate]	55.27 mL/min/kg
COc1ccc2[nH]cc(C(=O)OCC34CCN(CC3)CC4)c2c1Br [Compound 47, quinuclidin-4-ylmethyl 4-bromo-5-methoxy-1H-indole-3-carboxylate]	541.358 mL/min/kg
Cc1cc(Br)c2c(C(=O)OCC34CCN(CC3)CC4)c[nH]c2c1 [Compound 49, quinuclidin-4-ylmethyl 4-bromo-6-methyl-1H-indole-3-carboxylate]	254.566 mL/min/kg
Cc1cc(Cl)cc2[nH]cc(C(=O)OCC34CCN(CC3)CC4)c12 [Compound 50, quinuclidin-4-ylmethyl 6-chloro-4-methyl-1H-indole-3-carboxylate]	187.575 mL/min/kg
Cc1cc(C)c2c(C(=O)OCC34CCN(CC3)CC4)c[nH]c2c1 [Compound 54, quinuclidin-4-ylmethyl 4,6-dimethyl-1H-indole-3-carboxylate]	175.357 mL/min/kg
COc1cc2[nH]cc(C(=O)OCC34CCN(CC3)CC4)c2cc1C [Compound 56, quinuclidin-4-ylmethyl 6-methoxy-5-methyl-1H-indole-3-carboxylate]	1196.24 mL/min/kg
Cc1cc(O)cc2[nH]cc(C(=O)OCC34CCN(CC3)CC4)c12 [Compound 83, quinuclidin-4-ylmethyl 6-hydroxy-4-methyl-1H-indole-3-carboxylate]	14.09 mL/min/kg

Target: T1, CYP2C19 (Homo sapiens (Human), UniProt P33261)
Assay: Cytochrome P450 inhibition in human liver microsomes, CYP2C19
Conditions: read-out: 2C19 IC50, Protocol 1

T1 sequence (P33261 whole entry): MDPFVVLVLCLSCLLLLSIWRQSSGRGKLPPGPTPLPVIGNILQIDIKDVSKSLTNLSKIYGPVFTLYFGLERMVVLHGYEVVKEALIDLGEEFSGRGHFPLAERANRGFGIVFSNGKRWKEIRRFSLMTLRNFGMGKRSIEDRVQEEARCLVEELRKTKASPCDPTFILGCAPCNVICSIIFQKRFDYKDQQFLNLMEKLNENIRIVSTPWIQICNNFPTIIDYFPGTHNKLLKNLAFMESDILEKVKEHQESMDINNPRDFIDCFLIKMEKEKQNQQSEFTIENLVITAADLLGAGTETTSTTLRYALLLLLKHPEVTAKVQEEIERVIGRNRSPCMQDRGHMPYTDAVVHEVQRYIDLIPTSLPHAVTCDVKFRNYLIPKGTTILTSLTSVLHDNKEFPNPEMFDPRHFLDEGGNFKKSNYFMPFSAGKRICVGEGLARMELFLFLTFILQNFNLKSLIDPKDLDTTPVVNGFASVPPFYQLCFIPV

SMILES	pIC50
O=C(OCC12CCN(CC1)CC2)c1c[nH]c2cc(F)cc(Br)c12 [Compound 41, quinuclidin-4-ylmethyl 4-bromo-6-fluoro-1H-indole-3-carboxylate]	< 5.00
O=C(OCC12CCN(CC1)CC2)c1c[nH]c2cc(Cl)cc(Br)c12 [Compound 42, quinuclidin-4-ylmethyl 4-bromo-6-chloro-1H-indole-3-carboxylate]	< 5.00
Cc1cc(Cl)cc2[nH]cc(C(=O)OCC34CCN(CC3)CC4)c12 [Compound 50, quinuclidin-4-ylmethyl 6-chloro-4-methyl-1H-indole-3-carboxylate]	< 5.00
Cc1cc(O)cc2[nH]cc(C(=O)OCC34CCN(CC3)CC4)c12 [Compound 83, quinuclidin-4-ylmethyl 6-hydroxy-4-methyl-1H-indole-3-carboxylate]	< 5.00

Test system: not listed separately
Assay: Metabolic stability assay in human liver microsomes (HLM)
Format: in vitro ADME
Conditions: human, microsomes, 1 μM
Method in brief: as §1

SMILES	HLM
COc1cc(Cl)c2c(C(=O)OCC34CCN(CC3)CC4)c[nH]c2c1 [Compound 38, quinuclidin-4-ylmethyl 4-chloro-6-methoxy-1H-indole-3-carboxylate]	8.15 mL/min/kg
O=C(OCC12CCN(CC1)CC2)c1c[nH]c2cc(F)cc(Br)c12 [Compound 41, quinuclidin-4-ylmethyl 4-bromo-6-fluoro-1H-indole-3-carboxylate]	7.55 mL/min/kg
O=C(OCC12CCN(CC1)CC2)c1c[nH]c2cc(Cl)cc(Br)c12 [Compound 42, quinuclidin-4-ylmethyl 4-bromo-6-chloro-1H-indole-3-carboxylate]	12.43 mL/min/kg
COc1ccc2[nH]cc(C(=O)OCC34CCN(CC3)CC4)c2c1Br [Compound 47, quinuclidin-4-ylmethyl 4-bromo-5-methoxy-1H-indole-3-carboxylate]	13.5926 mL/min/kg
Cc1cc(Br)c2c(C(=O)OCC34CCN(CC3)CC4)c[nH]c2c1 [Compound 49, quinuclidin-4-ylmethyl 4-bromo-6-methyl-1H-indole-3-carboxylate]	5.963 mL/min/kg
Cc1cc(Cl)cc2[nH]cc(C(=O)OCC34CCN(CC3)CC4)c12 [Compound 50, quinuclidin-4-ylmethyl 6-chloro-4-methyl-1H-indole-3-carboxylate]	2.98 mL/min/kg
Cc1cc(C)c2c(C(=O)OCC34CCN(CC3)CC4)c[nH]c2c1 [Compound 54, quinuclidin-4-ylmethyl 4,6-dimethyl-1H-indole-3-carboxylate]	5.294 mL/min/kg
COc1cc2[nH]cc(C(=O)OCC34CCN(CC3)CC4)c2cc1C [Compound 56, quinuclidin-4-ylmethyl 6-methoxy-5-methyl-1H-indole-3-carboxylate]	4.868 mL/min/kg
Cc1cc(O)cc2[nH]cc(C(=O)OCC34CCN(CC3)CC4)c12 [Compound 83, quinuclidin-4-ylmethyl 6-hydroxy-4-methyl-1H-indole-3-carboxylate]	2.7 mL/min/kg

Target: T1, CYP2C19
Assay: not given
Conditions: microsomes, 45 min

SMILES	pIC50
COc1cc(Cl)c2c(C(=O)OCC34CCN(CC3)CC4)c[nH]c2c1 [Compound 38, quinuclidin-4-ylmethyl 4-chloro-6-methoxy-1H-indole-3-carboxylate]	< 5.00
COc1ccc2[nH]cc(C(=O)OCC34CCN(CC3)CC4)c2c1Br [Compound 47, quinuclidin-4-ylmethyl 4-bromo-5-methoxy-1H-indole-3-carboxylate]	< 5.00
Cc1cc(Br)c2c(C(=O)OCC34CCN(CC3)CC4)c[nH]c2c1 [Compound 49, quinuclidin-4-ylmethyl 4-bromo-6-methyl-1H-indole-3-carboxylate]	< 5.00
Cc1cc(C)c2c(C(=O)OCC34CCN(CC3)CC4)c[nH]c2c1 [Compound 54, quinuclidin-4-ylmethyl 4,6-dimethyl-1H-indole-3-carboxylate]	< 5.00
COc1cc2[nH]cc(C(=O)OCC34CCN(CC3)CC4)c2cc1C [Compound 56, quinuclidin-4-ylmethyl 6-methoxy-5-methyl-1H-indole-3-carboxylate]	< 5.00

Target: CYP1A2 (Homo sapiens (Human), UniProt P05177)
Assay: Cytochrome P450 inhibition in human liver microsomes, CYP1A2
Conditions: read-out: 1A2 IC50, Protocol 1

Chain of CYP1A2 (P05177 whole entry): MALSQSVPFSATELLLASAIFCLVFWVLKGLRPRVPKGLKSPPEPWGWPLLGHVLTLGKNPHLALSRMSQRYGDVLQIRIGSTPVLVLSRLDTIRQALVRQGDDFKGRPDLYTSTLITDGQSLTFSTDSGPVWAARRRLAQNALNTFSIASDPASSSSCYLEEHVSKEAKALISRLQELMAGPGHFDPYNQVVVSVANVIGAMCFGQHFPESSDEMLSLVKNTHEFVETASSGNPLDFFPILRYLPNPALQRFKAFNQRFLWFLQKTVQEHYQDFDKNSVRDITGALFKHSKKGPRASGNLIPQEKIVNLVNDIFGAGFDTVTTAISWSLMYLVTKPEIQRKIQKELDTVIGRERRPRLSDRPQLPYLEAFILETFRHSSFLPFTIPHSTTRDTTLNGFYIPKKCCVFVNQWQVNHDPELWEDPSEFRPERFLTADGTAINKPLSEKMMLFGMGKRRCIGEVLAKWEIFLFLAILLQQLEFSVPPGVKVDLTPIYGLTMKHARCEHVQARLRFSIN

SMILES	pIC50
COc1cc(Cl)c2c(C(=O)OCC34CCN(CC3)CC4)c[nH]c2c1 [Compound 38, quinuclidin-4-ylmethyl 4-chloro-6-methoxy-1H-indole-3-carboxylate]	< 5.00
O=C(OCC12CCN(CC1)CC2)c1c[nH]c2cc(F)cc(Br)c12 [Compound 41, quinuclidin-4-ylmethyl 4-bromo-6-fluoro-1H-indole-3-carboxylate]	< 5.00
O=C(OCC12CCN(CC1)CC2)c1c[nH]c2cc(Cl)cc(Br)c12 [Compound 42, quinuclidin-4-ylmethyl 4-bromo-6-chloro-1H-indole-3-carboxylate]	< 5.00
COc1ccc2[nH]cc(C(=O)OCC34CCN(CC3)CC4)c2c1Br [Compound 47, quinuclidin-4-ylmethyl 4-bromo-5-methoxy-1H-indole-3-carboxylate]	< 5.00
Cc1cc(Br)c2c(C(=O)OCC34CCN(CC3)CC4)c[nH]c2c1 [Compound 49, quinuclidin-4-ylmethyl 4-bromo-6-methyl-1H-indole-3-carboxylate]	< 5.00
Cc1cc(Cl)cc2[nH]cc(C(=O)OCC34CCN(CC3)CC4)c12 [Compound 50, quinuclidin-4-ylmethyl 6-chloro-4-methyl-1H-indole-3-carboxylate]	< 5.00
Cc1cc(C)c2c(C(=O)OCC34CCN(CC3)CC4)c[nH]c2c1 [Compound 54, quinuclidin-4-ylmethyl 4,6-dimethyl-1H-indole-3-carboxylate]	< 5.00
COc1cc2[nH]cc(C(=O)OCC34CCN(CC3)CC4)c2cc1C [Compound 56, quinuclidin-4-ylmethyl 6-methoxy-5-methyl-1H-indole-3-carboxylate]	< 5.00
Cc1cc(O)cc2[nH]cc(C(=O)OCC34CCN(CC3)CC4)c12 [Compound 83, quinuclidin-4-ylmethyl 6-hydroxy-4-methyl-1H-indole-3-carboxylate]	< 5.00
